In the NIST ThermoML archive (doi:10.1021/je200420u):
Numbers after ± are expanded uncertainties.

Experiments:
[1] = DTA
[2] = Molar enthalpy of transition or fusion; conditions: DSC
[3] = molar heat capacity at constant pressure; conditions: 101.33 kPa, Crystal 4, Small sample (50 mg) DSC

CCN1C(=O)CC(=O)N(CC)C1=S [1,3-diethyl-2-thiobarbituric acid]
Triple point temperature ([1]; Crystal): 377.1 ± 0.5 K
Molar enthalpy of transition or fusion ([2]; Crystal): 8.48 ± 0.287 kcal/mol
molar heat capacity at constant pressure ([3]; 265.15 K): 213.5 ± 4 J/K/mol
molar heat capacity at constant pressure ([3]; 270.15 K): 217.3 ± 4 J/K/mol
molar heat capacity at constant pressure ([3]; 273.15 K): 219.8 ± 3.9 J/K/mol
molar heat capacity at constant pressure ([3]; 275.15 K): 221.2 ± 4 J/K/mol
molar heat capacity at constant pressure ([3]; 280.15 K): 224.5 ± 3.8 J/K/mol
molar heat capacity at constant pressure ([3]; 285.15 K): 227.7 ± 3.8 J/K/mol
molar heat capacity at constant pressure ([3]; 290.15 K): 230.4 ± 3.9 J/K/mol
molar heat capacity at constant pressure ([3]; 295.15 K): 233.7 ± 4.1 J/K/mol
molar heat capacity at constant pressure ([3]; 298.15 K): 236.9 ± 4 J/K/mol
molar heat capacity at constant pressure ([3]; 300.15 K): 238.9 ± 4.6 J/K/mol
molar heat capacity at constant pressure ([3]; 305.15 K): 240.8 ± 4.3 J/K/mol
molar heat capacity at constant pressure ([3]; 310.15 K): 244.8 ± 4.8 J/K/mol
molar heat capacity at constant pressure ([3]; 315.15 K): 249.8 ± 5.8 J/K/mol
molar heat capacity at constant pressure ([3]; 320.15 K): 252.9 ± 6.1 J/K/mol
molar heat capacity at constant pressure ([3]; 325.15 K): 256.1 ± 8.1 J/K/mol
molar heat capacity at constant pressure ([3]; 330.15 K): 259.7 ± 8.4 J/K/mol
molar heat capacity at constant pressure ([3]; 335.15 K): 263.1 ± 8.6 J/K/mol
molar heat capacity at constant pressure ([3]; 340.15 K): 266.5 ± 8.8 J/K/mol
molar heat capacity at constant pressure ([3]; 345.15 K): 269.7 ± 8.5 J/K/mol
molar heat capacity at constant pressure ([3]; 350.15 K): 273.3 ± 9.2 J/K/mol
molar heat capacity at constant pressure ([3]; 355.15 K): 277.8 ± 9.3 J/K/mol
molar heat capacity at constant pressure ([3]; 360.15 K): 282.3 ± 9.8 J/K/mol
molar heat capacity at constant pressure ([3]; 365.15 K): 287.2 ± 10 J/K/mol

Oc1cc(O)nc(S)n1 [2-mercapto-4,6-pyrimidinediol]
Triple point temperature ([1]; Crystal 1): 516.4 ± 0.4 K
Triple point temperature ([1]; Crystal 2): 498 ± 1.3 K
Triple point temperature ([1]; Crystal 3): 475.8 ± 2.4 K
Triple point temperature ([1]; Crystal 4): 447.2 ± 1.4 K
Molar enthalpy of transition or fusion ([2]; Crystal 1): 3.54 ± 0.43 kcal/mol
Molar enthalpy of transition or fusion ([2]; Crystal 2): 0.0717 ± 0.0478 kcal/mol
Molar enthalpy of transition or fusion ([2]; Crystal 3): 0.0478 ± 0.0956 kcal/mol
Molar enthalpy of transition or fusion ([2]; Crystal 4): 0.167 ± 0.0478 kcal/mol
molar heat capacity at constant pressure ([3]; 265.15 K): 124.3 ± 4.8 J/K/mol
molar heat capacity at constant pressure ([3]; 270.15 K): 126.6 ± 5.3 J/K/mol
molar heat capacity at constant pressure ([3]; 273.15 K): 128 ± 5.6 J/K/mol
molar heat capacity at constant pressure ([3]; 275.15 K): 128.8 ± 5.6 J/K/mol
molar heat capacity at constant pressure ([3]; 280.15 K): 131.1 ± 5.8 J/K/mol
molar heat capacity at constant pressure ([3]; 285.15 K): 132.5 ± 5.2 J/K/mol
molar heat capacity at constant pressure ([3]; 290.15 K): 134.2 ± 5.6 J/K/mol
molar heat capacity at constant pressure ([3]; 295.15 K): 136.2 ± 5.9 J/K/mol
molar heat capacity at constant pressure ([3]; 298.15 K): 137.2 ± 6 J/K/mol
molar heat capacity at constant pressure ([3]; 300.15 K): 138.6 ± 5.5 J/K/mol
molar heat capacity at constant pressure ([3]; 305.15 K): 140 ± 6.2 J/K/mol
molar heat capacity at constant pressure ([3]; 310.15 K): 142.2 ± 6.4 J/K/mol
molar heat capacity at constant pressure ([3]; 315.15 K): 144.7 ± 5.1 J/K/mol
molar heat capacity at constant pressure ([3]; 320.15 K): 146.3 ± 5.4 J/K/mol
molar heat capacity at constant pressure ([3]; 325.15 K): 147.9 ± 4.7 J/K/mol
molar heat capacity at constant pressure ([3]; 330.15 K): 150.1 ± 4.4 J/K/mol
molar heat capacity at constant pressure ([3]; 335.15 K): 152 ± 4.5 J/K/mol
molar heat capacity at constant pressure ([3]; 340.15 K): 153.8 ± 4.7 J/K/mol
molar heat capacity at constant pressure ([3]; 345.15 K): 155.2 ± 5 J/K/mol
molar heat capacity at constant pressure ([3]; 350.15 K): 156.6 ± 4.8 J/K/mol
molar heat capacity at constant pressure ([3]; 355.15 K): 158.4 ± 4.8 J/K/mol
molar heat capacity at constant pressure ([3]; 360.15 K): 160.2 ± 4.6 J/K/mol
molar heat capacity at constant pressure ([3]; 365.15 K): 162.6 ± 4.1 J/K/mol
molar heat capacity at constant pressure ([3]; 370.15 K): 164.7 ± 4.2 J/K/mol
molar heat capacity at constant pressure ([3]; 375.15 K): 166 ± 4.6 J/K/mol
molar heat capacity at constant pressure ([3]; 380.15 K): 167.7 ± 5 J/K/mol
molar heat capacity at constant pressure ([3]; 385.15 K): 169.2 ± 5.2 J/K/mol
molar heat capacity at constant pressure ([3]; 390.15 K): 171 ± 5.3 J/K/mol
molar heat capacity at constant pressure ([3]; 395.15 K): 172.3 ± 5 J/K/mol
molar heat capacity at constant pressure ([3]; 400.15 K): 174.8 ± 5 J/K/mol
molar heat capacity at constant pressure ([3]; 405.15 K): 175.9 ± 5 J/K/mol
molar heat capacity at constant pressure ([3]; 410.15 K): 177.2 ± 5.2 J/K/mol
molar heat capacity at constant pressure ([3]; 415.15 K): 178.5 ± 5.1 J/K/mol
molar heat capacity at constant pressure ([3]; 420.15 K): 179.8 ± 4.6 J/K/mol
molar heat capacity at constant pressure ([3]; 425.15 K): 181.3 ± 4.2 J/K/mol
molar heat capacity at constant pressure ([3]; 430.15 K): 182.9 ± 4.1 J/K/mol
